Measurements taken from US20060122153A1, “Antineoplastic ether lipid compounds with modifications at the sn-2 carbon” (priority 2003, published 2006).

What was measured:
Format in all cases: cell-based, human
NCI-H226 = assay: NCI growth inhibition screen, non-small cell lung panel; design: key to Performance as compared to ET-18-O—CH3: = means equivalent activity; + means that it appears to be significantly better (i.e., by ˜2x); < means it appears to be less active than ET18OCH3 (˜2x); a combination like =/+ or </+ means that activity is dependent upon the isomer; a combination like =/+ or </+ means that activity is dependent upon the isomer; conditions: for Performance as compared to ET-18-O—CH3: NCI-H226, NS cell lung, from GI50s; for activity compared to ET-18-OCH3 (in words): NCI-H226 cell line, NCI screen
Procedure: (§1) Candidates deemed suitable for in vivo testing were then synthesized in large scale quantities and some of this material was sent to the NCI's Developmental Therapeutics Program for a battery of growth inhibitory studies against various human tumor cell lines (60 cell lines, 9 different panels). The remainder of the material was used to assess in vivo efficacy using murine tumor models. Additionally, studies were conducted on the lead candidates to discern mechanism of action with particular emphasis on these agents apoptotic ability as measured by caspase 3 activity. The details (materials and methods) for these various assays are described further in the following discussion.
(§2) Ten compounds were also sent to NCI's Drug Discovery Program for screening against numerous human tumor cell lines (9 panels total: renal ovarian, colon, CNS, non-small cell lung, leukemia, breast, melanoma, and prostate). The data are shown in FIGS. 2a-i which also include data regarding D- and L-ET-18-OCH3 (listed as L-EL and D-EL in the figures). Upon examining the data, one is struck by how 1R and 1a′S standout in comparison to the other compounds, especially for the renal, ovarian, colon, and CNS panels.

MALME-3M = assay: NCI growth inhibition screen, melanoma panel; design: key to Performance as compared to ET-18-O—CH3: = means equivalent activity; + means that it appears to be significantly better (i.e., by ˜2x); < means it appears to be less active than ET18OCH3 (˜2x); a combination like =/+ or </+ means that activity is dependent upon the isomer; a combination like =/+ or </+ means that activity is dependent upon the isomer; conditions: for Performance as compared to ET-18-O—CH3: MALME-3M, Melanoma, from GI50s; for activity compared to ET-18-OCH3 (in words): melanoma MALME-3M cell line, NCI screen
Procedure: as §1, §2

HS 578T = assay: NCI growth inhibition screen, breast panel; design: key: = means equivalent activity; + means that it appears to be significantly better (i.e., by ˜2x); < means it appears to be less active than ET18OCH3 (˜2x); a combination like =/+ or </+ means that activity is dependent upon the isomer; a combination like =/+ or </+ means that activity is dependent upon the isomer; conditions: from GI50s
Procedure: as §1, §2

MDA-MB-435 = assay: NCI growth inhibition screen, breast panel; design: key: = means equivalent activity; + means that it appears to be significantly better (i.e., by ˜2x); < means it appears to be less active than ET18OCH3 (˜2x); a combination like =/+ or </+ means that activity is dependent upon the isomer; a combination like =/+ or </+ means that activity is dependent upon the isomer; conditions: MDA-MB-435, Breast; from GI50s
Procedure: as §1, §2

MDA-N = assay: NCI growth inhibition screen, breast panel; design: key: = means equivalent activity; + means that it appears to be significantly better (i.e., by ˜2x); < means it appears to be less active than ET18OCH3 (˜2x); a combination like =/+ or </+ means that activity is dependent upon the isomer; a combination like =/+ or </+ means that activity is dependent upon the isomer; conditions: from GI50s
Procedure: as §1, §2

NCI/ADR-RES = assay: NCI growth inhibition screen, breast panel; design: key: = means equivalent activity; + means that it appears to be significantly better (i.e., by ˜2x); < means it appears to be less active than ET18OCH3 (˜2x); a combination like =/+ or </+ means that activity is dependent upon the isomer; a combination like =/+ or </+ means that activity is dependent upon the isomer; conditions: from GI50s
Procedure: as §1, §2

Structure (SMILES) | Performance as compared to ET-18-O—CH3 (NCI-H226) | activity compared to ET-18-OCH3 (in words) (NCI-H226) | Performance as compared to ET-18-O—CH3 (MALME-3M) | activity compared to ET-18-OCH3 (in words) (MALME-3M) | Performance as compared to ET-18-O—CH3 (HS 578T) | Performance as compared to ET-18-O—CH3 (MDA-MB-435) | Performance as compared to ET-18-O—CH3 (MDA-N) | Performance as compared to ET-18-O—CH3 (NCI/ADR-RES)
CCCCCCCCCCCCCCCCCCOC[C@@H](COP(=O)([O-])OCC[N+](C)(C)C)OS(C)(=O)=O [1a′S] | 32 | significantly better than ET-18-OCH3 | 0 | ET-18-OCH3 was more active | 0 | 0 | 0 | 0
CCCCCCCCCCCCCCCCCCOCC(COP(=O)([O-])OCC[N+](C)(C)C)OS(C)(=O)=O (stereo not shown) [Compound 1aR] | + | significantly better than ET-18-OCH3 | < | ET-18-OCH3 was more active | = | = | = | =
